Assay results: patent US7732412B2, “Methods of treatment using novel LHRH antagonists having improved solubility properties” (Zentaris GmbH, priority 1999, dated 2010)
pIC50: −log10 of the molar value. Values belong to the molecule of their own block, whether it stands above or below them. Numbered stars: 1 amine (or outer) side, 2 acyl side, 3 side chain; on linkers, the order of the positions; unused ones are H or OH. Square brackets hold non-standard residues; d marks the D form. Side chains are listed from the residue outwards. Peptide text beside a SMILES is read from it. * marks the point of attachment. Triazole(1,2,4-3-CO,5-NH) = O=C(c1n[nH]c(N[*:1])n1)[*:2]; Propanoyl(3-(4-F-phenyl)) = O=C(CCc1ccc(F)cc1)*; NH(4-amidinophenyl) = N=C(N)c1ccc(N*)cc1; dPhe(4-Cl) = N[C@H](Cc1ccc(Cl)cc1)C(=O)O; d1Nal = N[C@H](Cc1cccc2ccccc12)C(=O)O; d2Nal = N[C@H](Cc1ccc2ccccc2c1)C(=O)O; d(hCit) = NC(=O)NCCCC[C@@H](N)C(=O)O; Lys(iPr) = CC(C)NCCCC[C@H](N)C(=O)O; NMeY = CN[C@@H](Cc1ccc(O)cc1)C(=O)O; d3Pal = N[C@H](Cc1cccnc1)C(=O)O; Suc = O=C(CCC(=O)[*:2])[*:1]; Nle = CCCC[C@H](N)C(=O)O; Sar = CNCC(=O)O

Columns and labels:
human LHRH receptor = biological target: T1, human LHRH receptor (Homo sapiens, UniProt P30968); test: functional assay for antagonistic activity, fos-Luc luciferase reporter gene, stimulation with 1 nM [D-Trp6] LHRH; type: cell-based; design: expressed in transfected cells; settings: cells stimulated with 1 nM [D-Trp6] LHRH for 6 h; bracket = number of independent experiments
T1 sequence (P30968 1-328): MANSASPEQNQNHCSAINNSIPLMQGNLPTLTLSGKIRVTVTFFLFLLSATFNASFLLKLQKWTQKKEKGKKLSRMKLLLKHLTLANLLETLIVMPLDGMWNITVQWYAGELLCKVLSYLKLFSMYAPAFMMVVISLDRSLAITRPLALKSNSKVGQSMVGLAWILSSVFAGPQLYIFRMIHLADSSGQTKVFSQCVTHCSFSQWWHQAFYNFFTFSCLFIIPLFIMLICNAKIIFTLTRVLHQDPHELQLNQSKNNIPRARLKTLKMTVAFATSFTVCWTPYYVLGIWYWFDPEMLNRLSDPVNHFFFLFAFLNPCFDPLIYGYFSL
Method: The assay for the functional characterization of antagonistic analogs of LH-RH was carried out, with some modifications, as described in Beckers et al., “Characterization of gonadotropin-releasing hormone analogs based on a sensitive cellular luciferase reporter gene assay” (1997) Analyt. Biochem. 251, 17-23. The assay uses a reporter gene made by fusing the c-fos immediate-early gene promoter to a DNA sequence encoding luciferase (Luc). A recombinant cell line that expresses the human LH-RH. receptor is stably transfected with the fos-Luc reporter gene. Transcription of the fos-Luc fusion gene and synthesis of the Luc protein is induced in the cells in a dose-dependent manner by LH-RH and other LH-RH agonists that bind and signal through the human LH-RH receptor. Peptide LH-RH antagonists such as the compounds of the invention bind to cellular LH-RH receptors and inhibit this stimulation. The antagonistic potency (IC50) of peptide LH-RH antagonists as determined by the assay generally correlates well with the binding affinity (KD) of the LH-RH antagonists for LH-RH receptor as determined from ligand binding experiments.
Cells containing the fos-Luc reporter gene that express the human LH-RH receptor were cultured for 24 h in microtitre plates using DMEM with additives and 1% (v:v) FCS (10,000 cells per well). The cells were then stimulated with 1 nM [D-Trp^6] LHRH for 6 h. Peptide LH-RH antagonist compounds according to the invention were added before the stimulation, and the cells were lysed at the end for quantification of the cellular Luc activity. The calculation of the IC50 values from dose-effect curves was carried out by non-linear regression analysis using the Hill model (Programme EDX 2.0 from C. Grunwald, Arzneimittelwerk Dresden).
The quantification of the Luc activity was carried out in duplicate essentially as described (Promega Technical Bulletins #101/161) using the respective luciferase assay system (Promega E4030). Owing to addition of coenzyme A (CoA), an oxidation of luciferyl-CoA takes place with advantageous kinetics. After the removal of the culture medium from the microtitre plate, the cells were lysed by addition of 100 μl of lysis buffer (25 mM tris-phosphate pH 7.8, 2 mM dithiothreitol, 2 mM 1,2-diaminocyclohexane-N,N,N′,N′-tetraacetic acid (CDTA), 10% (v:v) glycerol, 1% (v:v) Triton X-100). After incubation at room temperature for 15 min, 10 μl of cell lysate were transferred into a white microtitre plate suitable for luminometric detection (Dynatech). The enzymatic reaction was initiated by addition of 50 μl of assay buffer (20 mM tricine pH 7.8, 1.07 mM (MgCO3)4Mg(OH)2, 2.67 mM MgSO4, 0.1 mM ethylene-diaminetetraacetic acid (EDTA), 33.3 mM dithiothreitol, 270 μM coenzyme A, 470 μM glow-worm (Photinus pyralis) luciferin, 530 μM rATPNa2). After one minute, the luminescence was determined for a total time of one second with a signal half-life of five minutes using the EG&G Berthold MicroLumat LB 96 P.

[1] = tested on: patients who suffer from prostate carcinoma; test: first clinical trial in prostate carcinoma, 14 patients, testosterone and PSA; type: in vivo, human
Method: (§1) The following data are derived from two clinical studies comprising 14 and 13 patients, respectively, who suffer from prostate carcinoma and who were treated with the compound of the invention having the formula: Ac-D-Nal(2)^1-D-Cpa^2-D-Pal(3)^3-Ser^4-N-Me-Tyr^5-D-Hci^6-Nle^7-Arg^8-Pro^9-D-Ala^10-NH2 (Ozarelix)
In the first clinical trial, patients were given i.m. injections of 65 mg Ozarelix on day 1 followed by another 65 mg i.m. injection on day 2. Patients were re-treated after a waiting period of 4 weeks. This 4 week period of treatment is referred to as a treatment “cycle”. Accordingly, dosage of 130 mg of Ozarelix was provided to the patients in the first four week cycle of treatment (Cycle 1).
Six out of these 14 patients were subsequently administered 65 mg Ozarelix per i.m. injection on day 29 and day 30 each, whereas the other eight patients only received 65 mg Ozarelix on day 29 (Cycle 2). This schedule was repeated on day 57/58 accordingly (Cycle 3).
As for the administration days, testosterone levels were always determined before application of ozarelix to the patients. In addition, mean change of Prostate Specific Antigen (PSA) levels were monitored 4-weekly over a period of 12 weeks. The percent change of PSA shown is the mean value for all treated patients and refers to the normalized individual baseline PSA levels before first Ozarelix administration.

[2] = tested on: patients who suffer from prostate carcinoma; test: second clinical trial in prostate carcinoma, 13 patients, testosterone; type: in vivo, human
Method: as §1
In the second clinical trial patients were given a single im. injection of 130 mg Ozarelix on day 1. Patients were re-treated after a waiting period of 4 weeks, and this 4 week period is considered as a treatment “Cycle”. Accordingly, dosage of 130 mg of Ozarelix was again provided to the patients in the first four week cycle of treatment (Cycle 1).
Seven out of these 13 patients were subsequently administered 130 mg Ozarelix per i.m. injection on day 29, whereas the other six patients received 100 mg Ozarelix on day 29 (Cycle 2). This schedule was repeated on day 57 accordingly (Cycle 3).
As for the administration days, testosterone levels were always determined before application of Ozarelix to the patients.

SMILES: CCCC[C@H](NC(=O)[C@@H](CCCCNC(=O)CCC(=O)Nc1ccc(C(=N)N)cc1)NC(=O)[C@H](Cc1ccc(O)cc1)N(C)C(=O)[C@H](CO)NC(=O)[C@@H](Cc1cccnc1)NC(=O)[C@@H](Cc1ccc(Cl)cc1)NC(=O)[C@@H](Cc1ccc2ccccc2c1)NC(C)=O)C(=O)N[C@@H](CCCCNC(C)C)C(=O)N1CCC[C@H]1C(=O)N(C)CC(N)=O [Example 9, Ac-D-Nal(2)^1-D-Cpa^2-D-Pal(3)^3-Ser^4-N-Me-Tyr^5-D-Lys(B)^6-Nle^7-Lys(iPr)^8-Pro^9-Sar^10-NH2] (Ac-[d2Nal][dPhe(4-Cl)][d3Pal]S[NMeY][dK]([Suc-NH(4-amidinophenyl)])[Nle][Lys(iPr)]P[Sar]-NH2)
- pIC50 (human LHRH receptor): 8.33

SMILES: CCCC[C@H](NC(=O)[C@@H](CCCCNC(=O)CCC(=O)Nc1ccc(C(=N)N)cc1)NC(=O)[C@H](Cc1ccc(O)cc1)N(C)C(=O)[C@H](CO)NC(=O)[C@@H](Cc1cccnc1)NC(=O)[C@@H](Cc1ccc(Cl)cc1)NC(=O)[C@@H](Cc1ccc2ccccc2c1)NC(C)=O)C(=O)N[C@@H](CCCNC(=N)N)C(=O)N1CCC[C@H]1C(=O)N(C)CC(N)=O [Example 7, Ac-D-Nal(2)^1-D-Cpa^2-D-Pal(3)^3-Ser^4-N-Me-Tyr^5-D-Lys(B)^6-Nle^7-Arg^8-Pro^9-Sar^10-NH2] (Ac-[d2Nal][dPhe(4-Cl)][d3Pal]S[NMeY][dK]([Suc-NH(4-amidinophenyl)])[Nle]RP[Sar]-NH2)
- pIC50 (human LHRH receptor): 8.89

More lines, main results first:

- pIC50 (human LHRH receptor): 9.66
SMILES: CC(C)C[C@H](NC(=O)[C@@H](CCCCNC(=O)c1nc(N)n[nH]1)NC(=O)[C@H](Cc1ccc(O)cc1)N(C)C(=O)[C@H](CO)NC(=O)[C@@H](Cc1cccc2ccccc12)NC(=O)CCc1ccc(F)cc1)C(=O)N[C@@H](CCCNC(=N)N)C(=O)N1CCC[C@H]1C(=O)N[C@H](C)C(N)=O [Example 6, 3-(4-Fluorophenyl)propionyl-D-Nal(1)^1-Ser^4-N-Me-Tyr^5-D-Lys (Atz)^6-Leu^7-Arg^8-Pro^9-D-Ala^10-NH2] ({Propanoyl(3-(4-F-phenyl))}-[d1Nal]S[NMeY][dK](Triazole(1,2,4-3-CO,5-NH))LRP[dA]-NH2)

- pIC50 (human LHRH receptor): 8.85
SMILES: CCCC[C@H](NC(=O)[C@@H](CCCCNC(=O)CCC(=O)Nc1ccc(C(=N)N)cc1)NC(=O)[C@H](Cc1ccc(O)cc1)N(C)C(=O)[C@H](CO)NC(=O)[C@@H](Cc1cccnc1)NC(=O)[C@@H](Cc1ccc(Cl)cc1)NC(=O)[C@@H](Cc1ccc2ccccc2c1)NC(C)=O)C(=O)N[C@@H](CCCNC(=N)N)C(=O)N1CCC[C@H]1C(=O)N[C@H](C)C(N)=O [Example 8, Ac-D-Nal(2)^1-D-Cpa^2-D-Pal(3)^3-Ser^4-N-Me-Tyr^5-D-Lys(B)^6-Nle^7-Arg^8-Pro^9-D-Ala^10-NH2] (Ac-[d2Nal][dPhe(4-Cl)][d3Pal]S[NMeY][dK]([Suc-NH(4-amidinophenyl)])[Nle]RP[dA]-NH2)

- pIC50 (human LHRH receptor): 9.62
SMILES: CCCC[C@H](NC(=O)[C@@H](CCCCNC(N)=O)NC(=O)[C@H](Cc1ccc(O)cc1)N(C)C(=O)[C@H](CO)NC(=O)[C@@H](Cc1cccnc1)NC(=O)[C@@H](Cc1ccc(Cl)cc1)NC(=O)[C@@H](Cc1ccc2ccccc2c1)NC(C)=O)C(=O)N[C@@H](CCCNC(=N)N)C(=O)N1CCC[C@H]1C(=O)N[C@H](C)C(N)=O [Example 1, Ac-D-Nal(2)^1-D-Cpa^2-D-Pal(3)^3-Ser^4-N-Me-Tyr^5-D-Hci^6-Nle^7-Arg^8-Pro^9-D-Ala^10-NH2] (Ac-[d2Nal][dPhe(4-Cl)][d3Pal]S[NMeY][d(hCit)][Nle]RP[dA]-NH2)
- PSA levels over the monitoring period ([1]; 12 weeks, first trial): significantly reduced
- Testosterone (mean) ([1]; Day 2, 65 mg i.m. on day 1 and 2, re-treated day 29(/30) and 57(/58), pre-dose day 1 4.4 ng/mL): 0.6 ng/mL
- Testosterone (mean) ([1]; Day 3, first trial, 65 mg i.m. on day 1 and 2): 0.3 ng/mL
- Testosterone (mean) ([1]; Day 8, first trial): 0.2 ng/mL
- Testosterone (mean) ([1]; Day 15, first trial): 0.1 ng/mL
- Testosterone (mean) ([1]; Day 22, first trial): 0.1 ng/mL
- Testosterone (mean) ([1]; Day 29, before application, first trial): 0.2 ng/mL
- PSA [% change] (mean, versus individual baseline) ([1]; Day 29, first trial): −77 % change
- Testosterone (mean) ([1]; Day 36, first trial): 0.1 ng/mL
- Testosterone (mean) ([1]; Day 43, first trial): 0.1 ng/mL
- Testosterone (mean) ([1]; Day 50, first trial): 0.1 ng/mL
- Testosterone (mean) ([1]; Day 57, before application, first trial): 0.1 ng/mL
- PSA [% change] (mean, versus individual baseline) ([1]; Day 57, first trial): −88 % change
- Testosterone (mean) ([1]; Day 64, first trial): 0.1 ng/mL
- Testosterone (mean) ([1]; Day 71, first trial): 0.1 ng/mL
- Testosterone (mean) ([1]; Day 78, first trial): 0.1 ng/mL
- PSA [% change] (mean, versus individual baseline) ([1]; Day 85, first trial): −89 % change
- Testosterone (mean) ([1]; Day 85, first trial): 0.3 ng/mL
- testosterone values of all patients ([1]; afterwards (after day 3), first trial): < 0.5 ng/mL
- treated patients hormonally castrated (testosterone <0.5 ng/mL) ([1]; day 2 (24 hours post-dose), first trial): 57%
- treated patients hormonally castrated (testosterone <0.5 ng/mL) ([1]; day 3 (48 hours post-dose), first trial): 79%
- Testosterone (mean) ([2]; Day 2, single 130 mg i.m. on day 1, re-treated day 29 and 57 (130 or 100 mg), pre-dose day 1 3.9 ng/mL): 0.4 ng/mL
- Testosterone (mean) ([2]; Day 3, second trial, 130 mg i.m. on day 1): 0.3 ng/mL
- Testosterone (mean) ([2]; Day 8, second trial): 0.1 ng/mL
- Testosterone (mean) ([2]; Day 15, second trial): 0.1 ng/mL
- Testosterone (mean) ([2]; Day 22, second trial): 0.1 ng/mL
- Testosterone (mean) ([2]; Day 29, before application, second trial): 0.2 ng/mL
- Testosterone (mean) ([2]; Day 36, second trial): 0.1 ng/mL
- Testosterone (mean) ([2]; Day 43, second trial): 0.1 ng/mL
- Testosterone (mean) ([2]; Day 50, second trial): 0.1 ng/mL
- Testosterone (mean) ([2]; Day 57, before application, second trial): 0.2 ng/mL
- Testosterone (mean) ([2]; Day 64, second trial): 0.1 ng/mL
- Testosterone (mean) ([2]; Day 71, second trial): 0.1 ng/mL
- Testosterone (mean) ([2]; Day 78, second trial): 0.1 ng/mL
- Testosterone (mean) ([2]; Day 85, second trial): 0.3 ng/mL
- testosterone values of all patients ([2]; afterwards (after day 3), second trial): < 0.5 ng/mL
- treated patients hormonally castrated (testosterone <0.5 ng/mL) ([2]; day 2 (24 hours post-dose), second trial): 69%
- treated patients hormonally castrated (testosterone <0.5 ng/mL) ([2]; day 3 (48 hours post-dose), second trial): 100%
